For the experiment, the target named is T1, human FSH receptor (Homo sapiens, UniProt P23945).
T1 construct: expressed in transfected cells; host or cells: CHO cells, cotransfected with a CRE/promotor firefly luciferase reporter
T1 sequence (P23945 18-695): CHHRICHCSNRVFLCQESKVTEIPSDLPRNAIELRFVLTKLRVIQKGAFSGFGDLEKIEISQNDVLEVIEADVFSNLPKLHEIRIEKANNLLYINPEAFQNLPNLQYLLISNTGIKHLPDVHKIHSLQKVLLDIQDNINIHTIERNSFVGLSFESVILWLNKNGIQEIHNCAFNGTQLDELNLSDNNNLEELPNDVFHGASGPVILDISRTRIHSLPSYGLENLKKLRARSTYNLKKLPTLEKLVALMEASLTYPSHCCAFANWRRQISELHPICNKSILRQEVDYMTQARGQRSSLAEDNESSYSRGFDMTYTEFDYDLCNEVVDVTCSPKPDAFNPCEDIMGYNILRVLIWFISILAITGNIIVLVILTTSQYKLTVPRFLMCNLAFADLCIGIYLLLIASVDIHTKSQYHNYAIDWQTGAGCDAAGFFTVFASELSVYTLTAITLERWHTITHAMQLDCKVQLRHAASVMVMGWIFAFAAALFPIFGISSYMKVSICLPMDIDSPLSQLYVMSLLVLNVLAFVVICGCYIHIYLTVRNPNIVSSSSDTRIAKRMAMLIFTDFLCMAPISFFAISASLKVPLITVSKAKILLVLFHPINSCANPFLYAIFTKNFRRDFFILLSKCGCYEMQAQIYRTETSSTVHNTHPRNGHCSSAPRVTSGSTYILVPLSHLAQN
As to the kind of experiment: Antagonistic activity at the human FSH receptor expressed in CHO cells (CRE-luciferase reporter). The format is cell-based. The note with it: CHO cells stably transfected with human FSH receptor and CRE/firefly luciferase reporter; 4 hours incubation; read-out: pIC50 (negative logarithm of the IC50 value) (converted). The method, then: The FSHR antagonists of the invention have pIC50 values higher than 6 in said assay. The preferred compounds of the invention have pIC50 values higher than 8.
Antagonistic activity of the compounds at the human FSH receptor was determined in Chinese Hamster Ovary (CHO) cells stably transfected with the human FSH receptor and cotransfected with a cAMP responsive element (CRE)/promotor directing the expression of a firefly luciferase reporter gene. […] The cells (7,500 cells/well of a 384 well plate) were incubated in Dulbecco′ minimal essential F12 modified medium (Invitrogen), supplemented with 1 μg/ml bovine insulin, 5 μg/ml human apo-transferrin, 100 U/ml penicillin G and 100 μg/ml streptomycin with the test compounds (concentration between 0.316 nM and 10.0 μM) in duplicate together with […] (which, at this concentration in the absence of test compound, induces 80% of the maximal luciferase stimulation) in a humidified atmosphere (95%) at 5-7% CO2 and 37° C. The final concentration of DMSO was 1%. After 4 hours of incubation, plates were allowed to adjust to room temperature for 1 hour. Then, SteadyLite (Perkin Elmer) solution was added to the wells and cells were allowed to lyse for at least 1 hour at room temperature. Subsequently, luciferase activity was measured in a luminescence counter. The signal is expressed as counts per second (cps). The IC50 (concentration of test compound causing half-maximal (50%) inhibition of the maximally attainable inhibition of the luciferase stimulation by the compound) and efficacy of the compounds were determined using the software program MathIQ (version 2.3, ID Business Solutions Limited).
In general terms: Reporter assays use an easily measured gene product as a stand-in for the process of interest.

Values joined by “and” are separate entries in the source; they are usually repeats but may differ in a detail not shown here. Identical values can stand only once. A value given as a limit tells only on which side of the number the result lay.

In the case of `COc1cc(OCC2CC2)cc(C(=O)NCC2CCN(c3ncnc(-c4cccc(C(=O)NCC(F)F)c4)n3)CC2)c1` [Example 32G, 3-(cyclopropylmethoxy)-N-((1-(4-(3-(2,2-difluoroethylcarbamoyl)phenyl)-1,3,5-triazin-2-yl)piperidin-4-yl)methyl)-5-methoxybenzamide], the half-inhibitory concentration (IC50) (as a rule, the point on the concentration scale where inhibition reaches its midpoint) was 10 to 100 nM.

For the compound `COc1cc(OCC2CC2)cc(C(=O)NCC2CCN(c3ncnc(-c4cccc(C(=O)NCCO)c4)n3)CC2)c1` [Example 32H, 3-(cyclopropylmethoxy)-N-((1-(4-(3-(2-hydroxyethylcarbamoyl)phenyl)-1,3,5-triazin-2-yl)piperidin-4-yl)methyl)-5-methoxybenzamide], the IC50 was 10 to 100 nM.

Turning to `COc1cc(OCC2CC2)cc(C(=O)NCC2CCN(c3ncnc(-c4cccc(C(=O)Nc5nccs5)c4)n3)CC2)c1` [Example 32I, 3-(cyclopropylmethoxy)-5-methoxy-N-((1-(4-(3-(thiazol-2-ylcarbamoyl)phenyl)-1,3,5-triazin-2-yl)piperidin-4-yl)methyl)benzamide], the IC50 is 10 to 100 nM.

For the compound `COc1cc(OCC2CC2)cc(C(=O)NCC2CCN(c3ccnc(-c4cccc(-n5cc(C)cn5)c4)n3)CC2)c1` [Example 33A, 3-(cyclopropylmethoxy)-5-methoxy-N-((1-(2-(3-(4-methyl-1H-pyrazol-1-yl)phenyl)pyrimidin-4-yl)piperidin-4-yl)methyl)benzamide], the IC50 was 10 to 100 nM and < 10 nM.

On to `COc1cc(OCC2CC2)cc(C(=O)NCC2CCN(c3ccnc(-c4ccc5oncc5c4)n3)CC2)c1` [Example 33B, N-((1-(2-(benzo[d]isoxazol-5-yl)pyrimidin-4-yl)piperidin-4-yl)methyl)-3-(cyclopropylmethoxy)-5-methoxybenzamide], for which the half-inhibitory concentration (IC50) was 10 to 100 nM.

In the case of `COc1cc(OCC2CC2)cc(C(=O)NCC2CCN(c3ccnc(-c4ccc(F)c(C#N)c4)n3)CC2)c1` [Example 33C, N-((1-(2-(3-cyano-4-fluorophenyl)pyrimidin-4-yl)piperidin-4-yl)methyl)-3-(cyclopropylmethoxy)-5-methoxybenzamide], the IC50 was 10 to 100 nM.

Consider `COc1cc(OCC2CC2)cc(C(=O)NCC2CCN(c3ccnc(-c4cccc(-n5ncc(C(=O)O)c5C)c4)n3)CC2)c1` [Example 33D, 1-(3-(4-(4-((3-(cyclopropylmethoxy)-5-methoxybenzamido)methyl)piperidin-1-yl)pyrimidin-2-yl)phenyl)-5-methyl-1H-pyrazole-4-carboxylic acid], for which the half-inhibitory concentration (IC50) was 10 to 100 nM.

In the case of `COc1cc(OCC2CC2)cc(C(=O)NCC2CCN(c3ccnc(-c4cccc(-n5cccn5)n4)n3)CC2)c1` [Example 33E, N-((1-(2-(6-(1H-pyrazol-1-yl)pyridin-2-yl)pyrimidin-4-yl)piperidin-4-yl)methyl)-3-(cyclopropylmethoxy)-5-methoxybenzamide], the IC50 is 10 to 100 nM.

On to `COc1cc(OCC2CC2)cc(C(=O)NCC2CCN(c3ncnc(-c4ccc(O)c(C#N)c4)n3)CC2)c1` [Example 34, N-((1-(4-(3-cyano-4-hydroxyphenyl)-1,3,5-triazin-2-yl)piperidin-4-yl)methyl)-3-(cyclopropylmethoxy)-5-methoxybenzamide], for which the IC50 was 10 to 100 nM.

On to `COc1cc(OCC2CC2)cc(C(=O)NC2CC23CCN(c2ccnc(-c4cccc(-n5cccn5)c4)n2)CC3)c1` (stereo not drawn) [Example 35, N-(6-(2-(3-(1H-pyrazol-1-yl)phenyl)pyrimidin-4-yl)-6-azaspiro[2.5]octan-1-yl)-3-(cyclopropylmethoxy)-5-methoxybenzamide], for which the IC50 was 10 to 100 nM.

As to `COc1cc(OCC2CC2)cc(C(=O)NC(C)C2CCN(c3ncnc(-c4cccc(-c5cc[nH]n5)c4)n3)CC2)c1` (stereo not drawn) [Example 37, N-(1-(1-(4-(3-(1H-pyrazol-3-yl)phenyl)-1,3,5-triazin-2-yl)piperidin-4-yl)ethyl)-3-(cyclopropylmethoxy)-5-methoxybenzamide], the IC50 was under 10 nM.

As for `COc1cc(OCC2CC2)cc(C(=O)NC(C)C2CCN(c3ccnc(-c4cccc(C#N)c4)n3)CC2)c1` (stereo not drawn) [Example 38, N-(1-(1-(2-(3-cyanophenyl)pyrimidin-4-yl)piperidin-4-yl)ethyl)-3-(cyclopropylmethoxy)-5-methoxybenzamide], the IC50 was under 10 nM.

`COc1cc(OCC2CC2)cc(C(=O)NC(C)C2CCN(c3ccnc(-c4cccc(-n5cccn5)c4)n3)CC2)c1` (stereo not drawn) [Example 39, N-(1-(1-(2-(3-(1H-pyrazol-1-yl)phenyl)pyrimidin-4-yl)piperidin-4-yl)ethyl)-3-(cyclopropylmethoxy)-5-methoxybenzamide]: the IC50 is under 10 nM.

For `COc1cc(OCC2CC2)cc(C(=O)NCC2CCN(c3ncnc(-c4cccc(-c5ncc[nH]5)c4)n3)CC2)c1` [Example 40, N-((1-(4-(3-(1H-imidazol-2-yl)phenyl)-1,3,5-triazin-2-yl)piperidin-4-yl)methyl)-3-(cyclopropylmethoxy)-5-methoxybenzamide 2,2,2-trifluoroacetate], the IC50 was under 10 nM.

On to `COc1cc(OCC2CC2)cc(C(=O)NCC2CCN(c3nc(-c4cccc(-c5ncc[nH]5)c4)ncc3F)CC2)c1` [Example 41, N-((1-(2-(3-(1H-imidazol-2-yl)phenyl)-5-fluoropyrimidin-4-yl)piperidin-4-yl)methyl)-3-(cyclopropylmethoxy)-5-methoxybenzamide 2,2,2-trifluoroacetate], for which the half-maximal inhibitory concentration (IC50) was under 10 nM.

Consider `COc1cc(NC(=O)C2CCN(c3ccnc(-c4cccc(-n5cccn5)c4)n3)CC2)cc(OCc2ccc(F)cc2)c1` [Example 42, 1-(2-(3-(1H-pyrazol-1-yl)phenyl)pyrimidin-4-yl)-N-(3-(4-fluorobenzoxy)-5-methoxyphenyl)piperidine-4-carboxamide], for which the half-inhibitory concentration (IC50) is 10 to 100 nM.

Turning to `COc1cc(NC(=O)C2CCN(c3ccnc(-c4cccc(-n5cccn5)c4)n3)CC2)cc(OCc2cc(C)on2)c1` [Example 43, 1-(2-(3-(1H-pyrazol-1-yl)phenyl)pyrimidin-4-yl)-N-(3-methoxy-5-((5-methylisoxazol-3-yl)methoxy)phenyl)piperidine-4-carboxamide], the IC50 was under 10 nM.

`COc1cc(NC(=O)C2CCN(c3ccnc(-c4cccc(-n5cccn5)c4)n3)CC2)cc(OC(C)C)c1` [Example 44, 1-(2-(3-(1H-pyrazol-1-yl)phenyl)pyrimidin-4-yl)-N-(3-isopropoxy-5-methoxyphenyl)piperidine-4-carboxamide]: the half-maximal inhibitory concentration (IC50) was 10 to 100 nM.

Regarding `COc1cc(NC(=O)C2CCN(c3ccnc(-c4cccc(-n5cccn5)c4)n3)CC2)cc(OCC2CCCCC2)c1` [Example 45, 1-(2-(3-(1H-pyrazol-1-yl)phenyl)pyrimidin-4-yl)-N-(3-(cyclohexylmethoxy)-5-methoxyphenyl)piperidine-4-carboxamide], the IC50 is 10 to 100 nM.

As for `Cc1cc(NC(=O)C2CCN(c3ccnc(-c4cccc(-n5cccn5)c4)n3)CC2)cc(OC(F)(F)F)c1` [Example 46, 1-(2-(3-(1H-pyrazol-1-yl)phenyl)pyrimidin-4-yl)-N-(3-methyl-5-(trifluoromethoxy)phenyl)piperidine-4-carboxamide], the IC50 was 10 to 100 nM.

`COc1cc(NC(=O)C2CCN(c3ccnc(-c4cccc(-n5cccn5)c4)n3)CC2)cc(OC)c1` [Example 51, 1-(2-(3-(1H-pyrazol-1-yl)phenyl)pyrimidin-4-yl)-N-(3,5-dimethoxyphenyl) piperidine-4-carboxamide]: the half-maximal inhibitory concentration (IC50) is under 10 nM.

The values above are taken from patent publication US8993757B2, “N-piperidin-4-yl derivatives” (Merck Sharp & Dohme B.V., priority 2011, dated 2015).
